Measurements: patent US20260365670A1, “EGFR INHIBITORS AND USES THEREOF” (DIZAL (JIANGSU) PHARMACEUTICAL CO., LTD., priority 2022, published 2026)
Like-named read-outs stand apart in the source and are kept apart here.

Experiments:
EGFR (d746-750 C797S) = target: T1, EGFR (d746-750 C797S) (Homo sapiens, UniProt P00533, C797S/DEL746-750); experiment: Inhibition of EGFR (d746-750 C797S) biochemical enzymatic activity (HTRF); conditions: 1 mM ATP
T1 construct: purchased signalchem
Method in brief: (§1)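 Phosphorylation of TK Substrate-biotin (1 μM) was measured at 1 mM ATP over a 1 h room-temperature incubation with serially varied compound. Detection was by HTRF ratio and analysis by 4PL fit to IC50.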

EGFR Exon19Del/T790M = target: T2, EGFR Exon19Del/T790M (Homo sapiens, UniProt P00533, DEL746-750/T790M); experiment: Inhibition of EGFR Exon19Del/T790M biochemical enzymatic activity (HTRF); conditions: 1 mM ATP
T2 construct: purchased Carna Bio
Method in brief: as §1

[1] = test system: Ba/F3 cells expressing EGFR mutations; experiment: Cell proliferation assay, Ba/F3 cells expressing EGFR mutations (CellTiter-Glo, 72 hours); type: cell-based
Method in brief: (§2)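 GI50 is the concentration giving 50% proliferation inhibition. Growth for this was normalised to a baseline viability reading taken when compound was added, and to DMSO wells. PC-9 (500 cells/well) and mutant-EGFR Ba/F3 (5000 cells/well) are treated after overnight seeding in RPMI1640-based medium.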

EGFR L858R/T790M = target: T3, EGFR L858R/T790M (Homo sapiens, UniProt P00533, L858R/T790M); experiment: Inhibition of EGFR L858R/T790M biochemical enzymatic activity (HTRF); conditions: 1 mM ATP
T3 construct: purchased Carna Bio
Method in brief: as §1

EGFR (C797S L858R) = target: T4, EGFR (C797S L858R) (Homo sapiens, UniProt P00533, C797S/L858R); experiment: Inhibition of EGFR (C797S L858R) biochemical enzymatic activity (HTRF); conditions: 1 mM ATP
T4 construct: purchased signalchem
Method in brief: as §1

EGFR[T790M/C797S/L858R] = target: T5, EGFR[T790M/C797S/L858R] (Homo sapiens, UniProt P00533, C797S/L858R/T790M); experiment: Inhibition of EGFR[T790M/C797S/L858R] biochemical enzymatic activity (HTRF); conditions: 1 mM ATP
T5 construct: purchased Carna Bio
Method in brief: as §1

[2] = target: T6, EGFR[T790M/C797S/d746-750] (Homo sapiens, UniProt P00533, C797S/DEL746-750/T790M); experiment: Inhibition of EGFR[T790M/C797S/d746-750] biochemical enzymatic activity (HTRF)
T6 construct: purchased Carna Bio
Method in brief: as §1

PC-9 = experiment: Cell proliferation assay, PC-9 cells (CellTiter-Glo, 72 hours); type: cell-based; conditions: PC9 cells
Method in brief: as §2

EGFR L858R = target: T7, EGFR L858R (Homo sapiens, UniProt P00533, L858R); experiment: Inhibition of EGFR L858R biochemical enzymatic activity (HTRF); conditions: 1 mM ATP
T7 construct: purchased Carna Bio
Method in brief: as §1

EGFR wild type = target: T8, EGFR wild type (Homo sapiens, UniProt P00533); experiment: Inhibition of EGFR wild type biochemical enzymatic activity (HTRF); conditions: 1 mM ATP
T8 construct: purchased Carna Bio
Method in brief: as §1

EGFR Exon19Del = target: T9, EGFR Exon19Del (Homo sapiens, UniProt P00533, DEL746-750); experiment: Inhibition of EGFR Exon19Del biochemical enzymatic activity (HTRF); conditions: read-out: IC50 @Del19
T9 construct: purchased Carna Bio
Method in brief: as §1

[3] = EGFR (d746-750 C797S), 1 h at room temperature, read-out: IC50 @Del19-C797S
[4] = EGFR Exon19Del/T790M, 1 h at room temperature, read-out: IC50 @Del19-T790M
[5] = BaF3 cells, EGFR DEL19 - C797S, read-out: GI50 DEL19 - C797S/BaF3
[6] = BaF3 cells, EGFR DEL19 - T790-C797S, read-out: GI50 DEL19 - T790-C797S/BaF3
[7] = BaF3 cells, EGFR L858R - C797S, read-out: GI50 L858R - C797S/BaF3
[8] = BaF3 cells, EGFR L858R - T790-C797S, read-out: GI50 L858R - T790-C797S/BaF3
[9] = BaF3 cells, EGFR L858R - T790M, read-out: GI50 L858R - T790M/BaF3
[10] = BaF3 cells, EGFR L858R, read-out: GI50 L858R/BaF3
[11] = EGFR DEL19 - T790M, read-out: GI50 DEL19 - T790M
[12] = EGFR L858R/T790M, 1 h at room temperature, read-out: IC50 @L858R-T790M
[13] = EGFR (C797S L858R), 1 h at room temperature, read-out: IC50 @L858-C797S
[14] = EGFR[T790M/C797S/L858R], 1 h at room temperature, read-out: IC50 @T790M- C797S - L858R
[15] = EGFR[T790M/C797S/d746-750], 1 mM ATP, 1 h at room temperature, read-out: IC50 @T790M - C797S - Del19
[16] = 1 h at room temperature, read-out: IC50 @L858R
[17] = EGFR wild type, 1 h at room temperature, read-out: IC50 @WT
[18] = EGFR Exon19Del, 1 mM ATP, 1 h at room temperature

T2 sequence (P00533 with tags, fused parts or gaps DEL746-750/T790M limits assumed): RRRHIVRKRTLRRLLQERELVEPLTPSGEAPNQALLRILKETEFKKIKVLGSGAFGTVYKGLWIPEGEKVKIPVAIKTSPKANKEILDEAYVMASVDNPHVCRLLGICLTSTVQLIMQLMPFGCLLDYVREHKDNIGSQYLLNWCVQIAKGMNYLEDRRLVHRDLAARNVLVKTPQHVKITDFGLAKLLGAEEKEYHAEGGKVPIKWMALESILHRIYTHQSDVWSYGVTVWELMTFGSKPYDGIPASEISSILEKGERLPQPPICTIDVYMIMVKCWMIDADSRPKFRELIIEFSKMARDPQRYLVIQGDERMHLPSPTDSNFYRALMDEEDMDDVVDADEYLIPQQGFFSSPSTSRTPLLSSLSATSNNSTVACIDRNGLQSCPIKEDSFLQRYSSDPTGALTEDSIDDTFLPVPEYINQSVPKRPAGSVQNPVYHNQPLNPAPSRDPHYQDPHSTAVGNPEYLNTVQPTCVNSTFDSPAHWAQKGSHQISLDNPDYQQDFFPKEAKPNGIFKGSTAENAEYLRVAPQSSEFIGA
T8 sequence (P00533 25-1210): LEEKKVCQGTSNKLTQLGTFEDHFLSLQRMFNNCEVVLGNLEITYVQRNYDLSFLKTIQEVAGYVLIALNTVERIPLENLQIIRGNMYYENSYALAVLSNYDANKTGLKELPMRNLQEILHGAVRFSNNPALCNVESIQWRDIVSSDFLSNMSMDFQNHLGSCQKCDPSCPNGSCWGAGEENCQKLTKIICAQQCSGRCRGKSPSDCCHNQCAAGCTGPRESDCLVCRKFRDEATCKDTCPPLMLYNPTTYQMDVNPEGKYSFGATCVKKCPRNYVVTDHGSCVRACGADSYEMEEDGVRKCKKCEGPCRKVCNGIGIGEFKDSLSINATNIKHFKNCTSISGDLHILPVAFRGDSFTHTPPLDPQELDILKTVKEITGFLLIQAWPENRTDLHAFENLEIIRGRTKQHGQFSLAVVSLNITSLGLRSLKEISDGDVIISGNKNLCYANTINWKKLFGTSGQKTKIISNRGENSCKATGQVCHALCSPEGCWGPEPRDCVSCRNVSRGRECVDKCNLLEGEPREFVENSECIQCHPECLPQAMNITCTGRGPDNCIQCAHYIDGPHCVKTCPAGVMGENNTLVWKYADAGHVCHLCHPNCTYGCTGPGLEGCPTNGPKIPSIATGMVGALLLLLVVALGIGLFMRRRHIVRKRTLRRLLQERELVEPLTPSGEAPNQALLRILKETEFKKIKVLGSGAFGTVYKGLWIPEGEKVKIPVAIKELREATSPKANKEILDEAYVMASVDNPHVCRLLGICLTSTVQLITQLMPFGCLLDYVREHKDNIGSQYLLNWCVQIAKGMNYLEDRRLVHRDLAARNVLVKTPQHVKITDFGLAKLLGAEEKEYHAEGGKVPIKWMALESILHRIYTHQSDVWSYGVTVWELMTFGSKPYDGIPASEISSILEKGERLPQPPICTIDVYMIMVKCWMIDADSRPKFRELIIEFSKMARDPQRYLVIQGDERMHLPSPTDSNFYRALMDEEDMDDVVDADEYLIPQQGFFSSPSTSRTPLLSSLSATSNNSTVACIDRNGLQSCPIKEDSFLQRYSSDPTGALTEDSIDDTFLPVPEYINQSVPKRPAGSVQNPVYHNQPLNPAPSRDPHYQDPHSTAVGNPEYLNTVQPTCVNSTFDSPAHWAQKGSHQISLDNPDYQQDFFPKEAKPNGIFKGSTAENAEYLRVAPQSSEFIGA
T5 sequence (P00533 25-1210 T790M/C797S/L858R): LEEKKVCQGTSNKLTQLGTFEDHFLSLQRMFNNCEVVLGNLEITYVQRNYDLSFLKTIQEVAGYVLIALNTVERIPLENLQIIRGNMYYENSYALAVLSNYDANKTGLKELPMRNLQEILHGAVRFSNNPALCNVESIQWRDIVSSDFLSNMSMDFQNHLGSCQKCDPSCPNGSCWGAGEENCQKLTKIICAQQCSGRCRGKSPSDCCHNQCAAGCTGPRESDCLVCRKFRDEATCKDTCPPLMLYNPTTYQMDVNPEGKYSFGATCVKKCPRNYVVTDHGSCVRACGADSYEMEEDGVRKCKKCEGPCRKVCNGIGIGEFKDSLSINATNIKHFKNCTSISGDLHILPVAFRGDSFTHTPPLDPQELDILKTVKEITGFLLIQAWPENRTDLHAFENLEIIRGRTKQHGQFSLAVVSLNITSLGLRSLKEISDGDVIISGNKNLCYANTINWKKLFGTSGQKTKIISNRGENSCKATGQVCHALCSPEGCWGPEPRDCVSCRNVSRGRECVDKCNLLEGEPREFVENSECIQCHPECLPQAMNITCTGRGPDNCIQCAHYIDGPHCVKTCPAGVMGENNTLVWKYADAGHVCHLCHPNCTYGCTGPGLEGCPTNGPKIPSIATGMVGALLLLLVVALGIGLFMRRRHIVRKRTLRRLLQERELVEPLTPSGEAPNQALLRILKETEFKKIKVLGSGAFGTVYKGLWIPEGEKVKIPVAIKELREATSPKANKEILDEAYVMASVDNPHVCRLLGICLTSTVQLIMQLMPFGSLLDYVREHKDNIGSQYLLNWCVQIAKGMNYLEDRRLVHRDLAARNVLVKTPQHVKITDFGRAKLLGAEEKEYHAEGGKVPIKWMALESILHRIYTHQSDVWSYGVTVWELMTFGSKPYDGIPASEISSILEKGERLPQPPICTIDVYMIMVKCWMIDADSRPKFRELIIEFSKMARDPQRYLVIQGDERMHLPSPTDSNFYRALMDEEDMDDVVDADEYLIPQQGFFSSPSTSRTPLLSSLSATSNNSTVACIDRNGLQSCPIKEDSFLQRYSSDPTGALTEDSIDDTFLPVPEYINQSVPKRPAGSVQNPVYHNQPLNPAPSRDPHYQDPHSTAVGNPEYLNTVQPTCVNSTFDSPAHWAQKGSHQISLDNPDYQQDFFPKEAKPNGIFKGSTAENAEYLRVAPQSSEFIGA
T3 sequence (P00533 25-1210 T790M/L858R): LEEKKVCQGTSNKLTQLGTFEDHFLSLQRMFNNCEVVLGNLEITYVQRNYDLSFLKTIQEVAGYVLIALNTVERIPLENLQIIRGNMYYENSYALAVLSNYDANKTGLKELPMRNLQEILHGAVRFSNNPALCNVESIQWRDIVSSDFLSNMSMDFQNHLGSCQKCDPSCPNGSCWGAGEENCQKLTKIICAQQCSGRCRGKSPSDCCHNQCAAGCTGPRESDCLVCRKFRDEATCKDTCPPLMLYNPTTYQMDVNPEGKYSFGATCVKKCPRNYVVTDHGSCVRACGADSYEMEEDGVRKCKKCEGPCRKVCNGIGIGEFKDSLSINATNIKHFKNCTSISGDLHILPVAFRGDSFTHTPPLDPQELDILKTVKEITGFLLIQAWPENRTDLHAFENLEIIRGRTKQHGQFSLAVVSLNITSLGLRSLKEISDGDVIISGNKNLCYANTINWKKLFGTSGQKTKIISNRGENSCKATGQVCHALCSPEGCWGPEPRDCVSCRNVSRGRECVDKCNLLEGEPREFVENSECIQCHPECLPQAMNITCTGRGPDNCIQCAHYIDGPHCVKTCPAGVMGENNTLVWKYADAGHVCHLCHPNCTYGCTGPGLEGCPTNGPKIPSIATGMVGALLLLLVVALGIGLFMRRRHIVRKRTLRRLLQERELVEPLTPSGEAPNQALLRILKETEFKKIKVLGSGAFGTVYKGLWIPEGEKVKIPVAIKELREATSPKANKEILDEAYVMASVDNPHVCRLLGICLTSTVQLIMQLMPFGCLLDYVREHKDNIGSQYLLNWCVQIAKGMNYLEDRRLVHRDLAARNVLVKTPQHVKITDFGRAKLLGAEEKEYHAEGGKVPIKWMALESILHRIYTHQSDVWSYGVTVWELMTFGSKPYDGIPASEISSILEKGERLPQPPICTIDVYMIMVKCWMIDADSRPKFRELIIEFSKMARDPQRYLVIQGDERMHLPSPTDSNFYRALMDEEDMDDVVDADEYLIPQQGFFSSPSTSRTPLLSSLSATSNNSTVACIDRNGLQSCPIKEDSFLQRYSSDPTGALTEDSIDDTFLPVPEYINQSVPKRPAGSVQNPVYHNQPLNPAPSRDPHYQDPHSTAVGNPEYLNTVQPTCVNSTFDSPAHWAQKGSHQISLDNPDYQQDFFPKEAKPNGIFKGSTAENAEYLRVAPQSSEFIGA
T1 sequence (P00533 with tags, fused parts or gaps DEL746-750/C797S limits assumed): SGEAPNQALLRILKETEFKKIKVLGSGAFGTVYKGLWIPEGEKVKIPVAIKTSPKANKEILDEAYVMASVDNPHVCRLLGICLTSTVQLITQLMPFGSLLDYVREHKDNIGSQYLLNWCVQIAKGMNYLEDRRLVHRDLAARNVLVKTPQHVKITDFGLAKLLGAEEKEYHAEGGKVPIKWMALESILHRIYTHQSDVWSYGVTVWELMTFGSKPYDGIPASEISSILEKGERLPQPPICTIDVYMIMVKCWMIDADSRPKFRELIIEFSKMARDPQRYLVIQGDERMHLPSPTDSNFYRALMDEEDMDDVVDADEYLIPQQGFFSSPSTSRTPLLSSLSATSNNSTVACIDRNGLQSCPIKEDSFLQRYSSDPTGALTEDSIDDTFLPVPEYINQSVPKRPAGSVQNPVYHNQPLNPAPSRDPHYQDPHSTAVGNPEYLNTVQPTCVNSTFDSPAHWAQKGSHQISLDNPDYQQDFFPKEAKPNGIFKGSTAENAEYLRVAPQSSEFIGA

SMILES	IC50 (EGFR (d746-750 C797S); [3]) [nM]	IC50 (EGFR Exon19Del/T790M; [4]) [nM]	GI50 [1, 5] [nM]	GI50 [1, 6] [nM]	GI50 [1, 7] [nM]	GI50 [1, 8] [nM]	GI50 [1, 9] [nM]	GI50 [1, 10] [nM]	GI50 [1, 11] [nM]	IC50 (EGFR L858R/T790M; [12]) [nM]	IC50 (EGFR (C797S L858R); [13]) [nM]	IC50 (EGFR[T790M/C797S/L858R]; [14]) [nM]	IC50 [2, 15] [nM]	GI50 (PC-9; read-out: GI50 PC9) [nM]	IC50 (EGFR L858R; [16]) [nM]	IC50 (EGFR wild type; [17]) [nM]	IC50 (EGFR Exon19Del; [18]) [nM]	other results
CN1CCC2(CCN(c3ccc4nc5n(c4c3)C34CCC(CN(CCOc6c(cnn6C)-c6cc(cn(C)c6=O)C(=O)N5)C3)C4)CC2)C1 (single isomer, unassigned) [Example A82A]																		IC50 (EGFR (d746-750 C797S); EGFR Del19-C797S, 1 h, room temperature, read-out: IC50 (nM) @Del19-C797S): 226 nM; IC50 (EGFR Exon19Del/T790M; EGFR Del19-T790M, 1 h, room temperature, read-out: IC50 (nM) @Del19-T790M): 1410 nM; GI50 ([1]; BaF3 cells, EGFR DEL19-C797S, CellTiter-Glo, read-out: DEL19-C797S/BaF3 GI50): 96 nM; GI50 ([1]; BaF3 cells, EGFR DEL19-T790-C797S, CellTiter-Glo, read-out: DEL19-T790-C797S/BaF3 GI50): 186 nM; GI50 ([1]; BaF3 cells, EGFR L858R, CellTiter-Glo, read-out: L858R/BaF3 GI50): 108 nM; GI50 ([1]; BaF3 cells, EGFR L858R-C797S, CellTiter-Glo, read-out: L858R-C797S/BaF3 GI50): 76 nM; GI50 ([1]; BaF3 cells, EGFR L858R-T790-C797S, CellTiter-Glo, read-out: L858R-T790-C797S/BaF3 GI50): 129 nM; GI50 ([1]; BaF3 cells, EGFR L858R-T790M, CellTiter-Glo, read-out: L858R-T790M/BaF3 GI50): 137 nM; GI50 ([1]; EGFR DEL19-T790M, CellTiter-Glo, read-out: DEL19-T790M GI50): 200 nM; IC50 (EGFR L858R/T790M; EGFR L858R-T790M, 1 h, room temperature, read-out: IC50 (nM) @L858R-T790M): > 5000 nM; IC50 (EGFR (C797S L858R); EGFR L858-C797S, 1 h, room temperature, read-out: IC50 (nM) @L858-C797S): 2140 nM; IC50 (EGFR[T790M/C797S/L858R]; EGFR T790M-C797S-L858R, 1 h, room temperature, read-out: IC50 (nM) @T790M- C797S - L858R): > 5000 nM; IC50 ([2]; EGFR T790M-C797S-Del19, 1 mM ATP, 1 h, room temperature, read-out: IC50 (nM) @T790M - C797S - Del19): 629 nM; GI50 (PC-9; CellTiter-Glo, read-out: PC9 GI50): 92 nM; IC50 (EGFR L858R; 1 h, room temperature, read-out: IC50 (nM) @L858R): 1210 nM; IC50 (EGFR wild type; EGFR WT, 1 h, room temperature, read-out: IC50 (nM) @WT): 341 nM; IC50 (EGFR Exon19Del; EGFR Del19, 1 mM ATP, 1 h, room temperature): 310 nM
Cc1cc2cc(n1)-c1cnn(C)c1OCCN1CC3CCC(C3)(C1)n1c(nc3ccc(N4CCC(N5CCOCC5)C4)cc31)NC2=O (single isomer, unassigned) [Example B44A2]	> 5000	> 5000	873	1290	3820	343	1080	9400	3760	> 5000	> 5000	> 5000	> 5000	3560	> 5000	> 5000	> 5000	
Cc1cc2cc(n1)-c1cnn(C)c1OCCN1CC3CCC(C3)(C1)n1c(nc3ccc(N(C)CCN(C)C)cc31)NC2=O (single isomer, unassigned) [Example B47A]	3460	4260	371	500	721	97	380	2990	417	> 5000	> 5000	> 5000	1820	2260	> 5000	> 5000	4170	
Cc1cc2cc(n1)-c1cnn(C)c1OCCN1CC3CCC(C3)(C1)n1c(nc3ccc(N4CC[C@@H](N(C)C)C4)cc31)NC2=O (single isomer, unassigned) [Example B42B]	7	10	2	2	3	2	2	5	2	9.9	15	5.7	6.3	9	51	734	13	
Cc1cc2cc(n1)-c1cnn(C)c1OCCCCCn1c(nc3ccn(C)c(=O)c31)NC2=O [Example B20, 5,16,26-Trimethyl-7-oxa-4,5,13,16,20,22,27-heptaazapentacyclo[22.3.1.0^{2,6}.0^{13,21}.0^{14,19}]octacosa-1(27),2(6),3,14(19),17,20,24(28),25-octaene-15,23-dione]	> 5000	685								> 5000	> 5000	> 5000	122		> 5000	> 5000	> 5000	GI50 ([1]; Mus musculus, BaF3, 72 h, BaF3 cells, EGFR DEL19 - C797S, read-out: GI50 DEL19 - C797S/BaF3): 487 nM; GI50 ([1]; Mus musculus, BaF3, 72 h, BaF3 cells, EGFR DEL19 - T790-C797S, read-out: GI50 DEL19 - T790-C797S/BaF3): 258 nM; GI50 ([1]; Mus musculus, BaF3, 72 h, BaF3 cells, EGFR L858R - C797S, read-out: GI50 L858R - C797S/BaF3): 10000 nM; GI50 ([1]; Mus musculus, BaF3, 72 h, BaF3 cells, EGFR L858R - T790-C797S, read-out: GI50 L858R - T790-C797S/BaF3): 159 nM; GI50 ([1]; Mus musculus, BaF3, 72 h, BaF3 cells, EGFR L858R - T790M, read-out: GI50 L858R - T790M/BaF3): 1020 nM; GI50 ([1]; Mus musculus, BaF3, 72 h, BaF3 cells, EGFR L858R, read-out: GI50 L858R/BaF3): 2040 nM; GI50 ([1]; Mus musculus, BaF3, 72 h, EGFR DEL19 - T790M, read-out: GI50 DEL19 - T790M): 331 nM; GI50 (PC-9; Homo sapiens, PC-9, 72 h, read-out: GI50 PC9): 1280 nM
